Data on 28 molecules can be found in patent US12649712B2, “Indene compounds, pharmaceutical compositions thereof, and their therapeutic applications” (NucMito Pharmaceuticals Co. Ltd., priority 2020, dated 2026).

The subject of the test is alpha-smooth muscle actin (α-SMA). The test can be described thus: Inhibition of TGF-β induced expression of alpha-smooth muscle actin (α-SMA) in CFSC cells, western blot. Format: cell-based. Conditions: compound at 10 μM, TGF-β (10 ng/mL), 24 hours, decrease in band intensity vs TGF-β only. The procedure:
The ability of a compound to inhibit the TGF-β induced expression of alpha-smooth muscle actin (α-SMA) was evaluated in CCL4-treated fat storing (CFSC) cells. α-SMA is considered as a reliable marker of hepatic stellate cell activation and a key biomarker for liver fibrosis. See, e.g., Meng et al., Nat. Rev. Nephrol. 2016, 12, 325-38; Fabregat et al., FEBS J. 2016, 283, 2219-32.
CFSC cells maintained in a DMEM medium supplemented with 10% fetal bovine serum were seeded to 12-well culture dishes and grown to a confluence of 60-70% the next day. Culture was changed to a serum-free DMEM medium and treated with a compound at 10 μM in the presence of TGF-β (10 ng/mL). The cells were incubated for another 24 hours. All culture was maintained at 37° C. in 5% carbon dioxide.
A NP-40 lysate solution (50 mM Tris (pH 7.4), 150 mM NaCl, 1% NP-40) with EDTA free cocktail added was used to lyse the cells on ice for 30 min. The lysate was collected and centrifuged at 4° C. for 10 min at 12,000 rpm. The pellet was discarded and the supernatant was transferred to a new tube. Cell lysates were loaded with 5×loading buffer and boiled for 10 min, resolved by 10% SDS-polyacrylamide gel electrophoresis (SDS-PAGE), and transferred to PVDF membrane. The membrane was blocked with 5% skim milk in Tris-buffered saline and TWEEN® 20 (TBST; 10 mM Tris-HCl (pH 8.0), 150 mM NaCl, 0.1% TWEEN® 20) for 1 h at room temperature and then incubated with α-SMA and […] antibodies overnight at 4° C. After washing twice with TBST, the membrane was probed with a horseradish […] anti-immunoglobulin (1:5000 dilution) for 1 h at room temperature. After two subsequent rinses in TBST, immunoreactive products were reacted with ECL and visualized by a UVP CHEMSTUDIO™ imaging system. The western blotting bands are quantitated using an ImageJ software. The percentage of inhibition was obtained by calculating the percentage decrease in the band intensity compared to the one treated with TGF-β only.
The results are summarized in Table 1, wherein A represents a value no less of 90% inhibition, B represents a value less than 90% but no less than 80% inhibition, C represents a value less than 80% but no less than 70% inhibition, D represents a value less than 70% but no less than 50% inhibition, and E represents a value less than 50% with a compound at 10 μM.
Background: In western blotting, separated proteins are transferred to a membrane and probed.

Regarding `CC1=C(CC(=O)O)c2cc(F)ccc2/C1=C/c1ccc(Oc2ccccc2)cc1` [Compound E3, 2-[(1E)-5-Fluoro-2-methyl-1-[(4-phenoxyphenyl)methylidene]-1H-inden-3-yl]acetic acid], the inhibition – broadly, how much of the control response was suppressed – at 10 µM is over 90%.
Turning to `CC1=C(CC(=O)O)c2cc(F)ccc2/C1=C\c1ccc(C(C(F)(F)F)C(F)(F)F)cc1` [Compound B42, 2-[(1Z)-5-fluoro-1-{[4-(1,1,1,3,3,3-hexafluoropropan-2-yl)phenyl]methylidene}-2-methyl-1H-inden-3-yl]acetic acid], the inhibition at 10 µM is 80 to 90%.
`CC1=C(CC(=O)O)c2cc(F)ccc2/C1=C\c1cccc(Oc2ccc(Cl)cc2)c1` [Compound D25, 2-[(1Z)-5-Fluoro-2-methyl-1-({3-[4-chlorophenoxy]phenyl}methylidene)-1H-inden-3-yl]acetic acid] had an inhibition at 10 µM of over 90%.
Then `CC1=C(CC(=O)O)c2cc(F)ccc2/C1=C\c1ccc(N(C)c2ccc(F)cc2)cc1` [Compound A31, 2-[(1Z)-5-Fluoro-1-({4-[(4-fluorophenyl)(methyl)amino]phenyl}methylidene)-2-methyl-1H-inden-3-yl]acetic acid], with over 90%; and `CC1=C(CC(=O)O)c2cc(F)ccc2/C1=C\c1ccccc1Oc1ccccc1` [Compound D19, 2-[(1Z)-5-Fluoro-1-(2-(phenoxy)benzylidene)-2-methyl-1H-inden-3-yl]-acetic acid], with under 50%.
The molecule `CC1=C(CC(=O)O)c2cc(F)ccc2/C1=C\c1ccc(Oc2ccc(F)cc2)cc1C(F)(F)F` [Compound D12, 2-[(1Z)-1-{[2-Trifluoromethyl-4-(4-fluorophenoxy)phenyl]methylidene}-5-fluoro-2-methyl-1H-inden-3-yl]acetic acid] registered an inhibition at 10 µM of under 50%.
Then `CC1=C(CC(=O)O)c2cc(F)ccc2/C1=C\c1ccc(F)c(Oc2ccccc2)c1` [Compound D23, 2-[(1Z)-5-Fluoro-1-(4-fluoro-3-(phenoxy)benzylidene)-2-methyl-1H-inden-3-yl]-acetic acid], with over 90%; and `COc1ccc2ccccc2c1/C=C1/C(C)=C(CC(=O)O)c2cc(F)ccc21` [Compound B36, 2-[(1Z)-5-fluoro-1-[(2-methoxynaphthalen-1-yl)methylidene]-2-methyl-1H-inden-3-yl]acetic acid], with over 90%.
In turn, `CC1=C(CC(=O)O)c2cc(F)ccc2/C1=C\c1ccc(Oc2ccc(C(C)C)cc2)cc1Cl` [Compound A15, 2-[(1Z)-1-({2-Chloro-4-[4-(propan-2-yl)phenoxy]phenyl}methylidene)-5-fluoro-2-methyl-1H-inden-3-yl]acetic acid] had an inhibition at 10 µM of 80 to 90%.
Molecule `COc1cc(Oc2ccc(C(C)C)cc2)ccc1/C=C1/C(C)=C(CC(=O)O)c2cc(F)ccc21` [Compound A13, 2-[(1Z)-5-Fluoro-1-({2-methoxy-4-[4-(propan-2-yl)phenoxy]phenyl}-methylidene)-2-methyl-1H-inden-3-yl]acetic acid] showed an inhibition at 10 µM of under 50%.
As for `COc1ccc(Oc2cccc(/C=C3/C(C)=C(CC(=O)O)c4cc(F)ccc43)c2)cc1` [Compound D22, 2-[(1Z)-5-Fluoro-2-methyl-1-({3-[4-methoxyphenoxy]phenyl}methylidene)-1H-inden-3-yl]acetic acid], the inhibition at 10 µM is over 90%.
In the case of `CCc1ccc(Oc2ccc(/C=C3/C(C)=C(CC(=O)O)c4cc(F)ccc43)cc2)cc1` [Compound A10, 2-[(1Z)-1-{[4-(4-Ethylphenoxy)phenyl]methylidene}-5-fluoro-2-methyl-1H-inden-3-yl]acetic acid], the inhibition at 10 µM is over 90%.
In the case of `COc1ccc(Oc2ccc(/C=C3/C(C)=C(CC(=O)O)c4cc(F)ccc43)c(Cl)c2)cc1` [Compound A12, 2-[(1Z)-1-{[2-Chloro-4-(4-methoxyphenoxy)phenyl]methylidene}-5-fluoro-2-methyl-1H-inden-3-yl]acetic acid], the inhibition at 10 µM was over 90%.
On to `CC1=C(CC(=O)O)c2cc(F)ccc2/C1=C\c1ccc(Oc2ccc(F)cc2)c(C)c1` [Compound D13, 2-[(1Z)-1-{[3-Methyl-4-(4-fluorophenoxy)phenyl]methylidene}-5-fluoro-2-methyl-1H-inden-3-yl]acetic acid], for which the inhibition at 10 µM is under 50%.
Next, `CC1=C(CC(=O)O)c2c(F)cc(F)cc2/C1=C\c1cccc(Oc2ccccc2)c1` [Compound D21, 2-[(1Z)-4,6-Difluoro-1-(3-(phenoxy)benzylidene)-2-methyl-1H-inden-3-yl]-acetic acid]: over 90%.
Then `CC1=C(CCc2nnn[nH]2)c2ccccc2/C1=C\c1ccc(C(C)C)cc1` [Compound B30, (Z)-5-(2-(1-(4-isopropylbenzylidene)-2-methyl-1H-inden-3-yl)ethyl)-1H-tetrazole], with over 90%; and `CC1=C(CC(=O)O)c2cc(F)ccc2/C1=C\c1ccc(Oc2ccc(C(F)(F)F)cc2)cc1` [Compound D7, 2-[(1Z)-5-Fluoro-2-methyl-1-({4-[4-(trifluoromethyl)phenoxy]phenyl}-methylidene)-1H-inden-3-yl]acetic acid], with over 90%.
Then `CC1=C(CC(=O)O)c2cc(F)ccc2/C1=C\c1ccc(Oc2ccc(Br)cc2)cc1` [Compound A6, 2-[(1Z)-1-{[4-(4-Bromophenoxy)phenyl]methylidene}-5-fluoro-2-methyl-1H-inden-3-yl]acetic acid], with over 90%; and `CC1=C(CC(=O)O)c2cc(F)ccc2/C1=C\c1ccc(Oc2cnc(F)c(C)c2)cc1` [Compound A21, 2-[(1Z)-5-Fluoro-1-({4-[(6-fluoro-5-methylpyridin-3-yl)oxy]phenyl}-methylidene)-2-methyl-1H-inden-3-yl]acetic acid], with 80 to 90%.
Molecule `CC1=C(CC(=O)N(C)O)c2cc(F)ccc2/C1=C\c1ccc(Oc2ccccc2)cc1` [Compound C1, 2-[(1Z)-5-Fluoro-2-methyl-1-[(4-phenoxyphenyl)methylidene]-1H-inden-3-yl]-N-hydroxy-N-methylacetamide] returned an inhibition at 10 µM of 80 to 90%.
Molecule `C1=C(Cc2nnn[nH]2)c2ccccc2/C1=C/c1cccc(Oc2ccccc2)c1` [Compound A54, 5-{[(1E)-1-[(3-Phenoxyphenyl)methylidene]-1H-inden-3-yl]methyl}-1H-1,2,3,4-tetrazole] had an inhibition at 10 µM of over 90%.
`CC1=C(CC(=O)O)c2cc(F)ccc2/C1=C\c1ccc(Oc2cccc3ncccc23)cc1` [Compound A22, (Z)-2-(5-Fluoro-2-methyl-1-(4-(quinolin-5-yloxy)benzylidene)-1H-inden-3-yl)acetic acid]: the inhibition at 10 µM lay in the range of 50 to 70%.
`CC1=C(CC(=O)O)c2cc(F)ccc2/C1=C\c1ccc2ccccc2c1` [Compound B34, 2-[(1Z)-5-fluoro-2-methyl-1-[(naphthalen-2-yl)methylidene]-1H-inden-3-yl]acetic acid] returned an inhibition at 10 µM of over 90%.
Turning to `COc1ccc2c(c1)C(CC(=O)O)=C(C)/C2=C/c1ccc(Oc2ccc(F)cc2)cc1` [Compound D10, 2-[(1Z)-5-Methoxy-2-methyl-1-({4-[4-fluorophenoxy]phenyl}methylidene)-1H-inden-3-yl]acetic acid], the inhibition at 10 µM is over 90%.
On to `CC1=C(CC(=O)O)c2cc(F)ccc2/C1=C\c1ccc(N(c2ccc(F)cc2)c2ccc(C=O)cc2)cc1` [Compound A35, 2-[(1Z)-5-Fluoro-1-({4-[(4-fluorophenyl)(4-formylphenyl)amino]phenyl}-methylidene)-2-methyl-1H-inden-3-yl]acetic acid], for which the inhibition at 10 µM is over 90%.
Next, `CC1=C(CC(=O)O)c2c(ccc(F)c2C)/C1=C\c1ccc(Oc2ccc(F)cc2)cc1` [Compound A69, 2-[(1Z)-5-Fluoro-1-{[4-(4-fluorophenoxy)phenyl]methylidene}-2,4-dimethyl-1H-inden-3-yl]acetic acid]: over 90%.
`CC1=C(CC(=O)O)c2c(ccc(F)c2F)/C1=C\c1ccc(Oc2ccc(F)cc2)cc1` [Compound A68, 2-[(1Z)-4,5-Difluoro-1-{[4-(4-fluorophenoxy)phenyl]methylidene}-2-methyl-1H-inden-3-yl]acetic acid] registered an inhibition at 10 µM of over 90%.
Molecule `CC1=C(CC(=O)O)c2cc(F)ccc2/C1=C\c1ccc(Oc2ccc(C)c(F)c2)cc1` [Compound D4, 2-[(1Z)-5-Fluoro-2-methyl-1-({4-[3-fluoro-4-methylphenoxy]phenyl}-methylidene)-1H-inden-3-yl]acetic acid] gave an inhibition at 10 µM of under 50%.
